Assay [1] concerns Kuramochi cell line. Put plainly: Cell Viability Assay (Cell Titer-Glo, 7 days). It counts as cell-based. Conditions: 168 h, Kuramochi cells, 7 days incubation, read-out: PARG Cell viability (IC50). In a few lines: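 Kuramochi cells in RPMI with 10% FBS, seeded at 400 cells/well, were treated with a 9-point 3-fold dilution series in duplicate for 7 days at 37 °C, 5% CO2. Viability by CellTiter-Glo luminescence, normalised to DMSO and medium-only controls; IC50 from 4-parameter Hill fit.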
For orientation: In ATP-based viability assays light output follows the ATP content of the culture.

Assay [2] concerns the target hPARG (C-terminal His6-tag) (Homo sapiens (Human), UniProt Q86W56). Put plainly: PARG Enzymatic Activity Assay (HTRF). Conditions: hPARG 65 pM final, biotinylated-NAD ribosylated PARP1 8 nM final. It counts as biochemical. In a few lines: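 E. coli-expressed enzyme (65 pM final) preincubated 60 min RT with compounds (10-point 4-fold dilution, duplicate) in 50 mM Tris pH 7.4, 3 mM EDTA, 1 mM DTT, 50 mM KCl, 0.01% Tween 20. Biotinylated-NAD ribosylated PARP1 substrate (8 nM final) reacted 10 min RT; Eu-streptavidin/anti-6HIS-XL665 HTRF read 665/620 nm after 60 min. IC50 from 4-parameter Hill fit.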
In general terms: TR-FRET usually uses a lanthanide donor and a delayed reading to cut background.

Some results are limits rather than exact numbers.

Sequence of hPARG (C-terminal His6-tag) (Q86W56 whole entry): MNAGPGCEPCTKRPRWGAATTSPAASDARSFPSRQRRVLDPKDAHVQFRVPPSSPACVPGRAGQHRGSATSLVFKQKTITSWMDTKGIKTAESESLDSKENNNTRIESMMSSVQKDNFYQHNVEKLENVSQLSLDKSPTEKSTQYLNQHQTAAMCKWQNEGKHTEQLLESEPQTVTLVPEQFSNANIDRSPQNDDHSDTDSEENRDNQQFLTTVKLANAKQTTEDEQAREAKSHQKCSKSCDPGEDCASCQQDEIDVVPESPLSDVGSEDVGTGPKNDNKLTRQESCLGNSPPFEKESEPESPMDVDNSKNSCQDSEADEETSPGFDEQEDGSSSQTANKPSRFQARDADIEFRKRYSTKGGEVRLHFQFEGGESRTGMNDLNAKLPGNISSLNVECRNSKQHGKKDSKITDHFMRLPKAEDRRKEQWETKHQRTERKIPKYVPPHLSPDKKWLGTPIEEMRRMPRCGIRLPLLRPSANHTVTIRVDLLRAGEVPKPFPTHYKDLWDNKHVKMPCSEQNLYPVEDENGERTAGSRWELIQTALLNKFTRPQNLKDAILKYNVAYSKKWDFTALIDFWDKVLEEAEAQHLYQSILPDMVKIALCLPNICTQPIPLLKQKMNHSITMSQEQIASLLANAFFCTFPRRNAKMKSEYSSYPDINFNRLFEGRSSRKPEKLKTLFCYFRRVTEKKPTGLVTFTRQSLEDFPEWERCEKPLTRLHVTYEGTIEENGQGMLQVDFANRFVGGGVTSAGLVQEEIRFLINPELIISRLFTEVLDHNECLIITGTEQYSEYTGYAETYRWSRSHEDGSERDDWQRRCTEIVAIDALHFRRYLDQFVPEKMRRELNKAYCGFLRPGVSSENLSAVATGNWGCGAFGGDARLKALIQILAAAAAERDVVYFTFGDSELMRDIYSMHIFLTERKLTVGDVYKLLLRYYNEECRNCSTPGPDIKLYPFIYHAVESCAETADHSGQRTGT

Consider `N#CC1(NS(=O)(=O)c2ccc3c4c(N5CCn6c(nnc6C(F)(F)F)C5)ncnc4n(-c4nnc(C(F)F)s4)c3c2)CC1` [Example 156, N-(1-cyanocyclopropyl)-9-(5-(difluoromethyl)-1,3,4-thiadiazol-2-yl)-4-(3-(trifluoromethyl)-5,6-dihydro-[1,2,4]triazolo[4,3-a]pyrazin-7(8H)-yl)-9H-pyrimido[4,5-b]indole-7-sulfonamide], for which the IC50 in assay [1] and in assay [2] was less than 100 nM throughout.
On to `N#CC1(NS(=O)(=O)c2ccc3c4c(N5C[C@H]6C[C@@H]5CO6)ncnc4n(-c4nnc(C(F)F)s4)c3c2)CC1` [Example 202, 4-((1R,4R)-2-Oxa-5-azabicyclo[2.2.1]heptan-5-yl)-N-(1-cyanocyclopropyl)-9-(5-(difluoromethyl)-1,3,4-thiadiazol-2-yl)-9H-pyrimido[4,5-b]indole-7-sulfonamide], for which the IC50 in assay [1] and in assay [2] was less than 100 nM throughout.
In the case of `CO[C@@H]1CCN(C(=O)N2CCC(c3ncnc4c3c3ccc(S(=O)(=O)NC5(C#N)CC5)cc3n4-c3nnc(C(F)F)s3)CC2)C1` [Example 135, (R)-N-(1-Cyanocyclo-propyl)-9-(5-(difluoromethyl)-1,3,4-thiadiazol-2-yl)-4-(1-(3-methoxypyrrolidine-1-carbonyl)piperidin-4-yl)-9H-pyrimido [4,5-b]indole-7-sulfonamide], the IC50 in assay [1] and in assay [2] was less than 100 nM throughout.
Regarding `N#CC1(NS(=O)(=O)c2ccc3c4c(N5CCC(N6CCOCC6)[C@@H](F)C5)ncnc4n(-c4nnc(C(F)F)s4)c3c2)CC1` (stereo partly drawn) [Example 209, N-(1-Cyanocyclopropyl)-9-(5-(difluoromethyl)-1,3,4-thiadiazol-2-yl)-4-((3S)-3-fluoro-4-morpholinopiperidin-1-yl)-9H-pyrimido[4,5-b]indole-7-sulfonamide], the IC50 in assay [1] and in assay [2] was less than 100 nM in each case.
As to `N#CC1(NS(=O)(=O)c2ccc3c4c(N5CCN(C(=O)C6CC6)CC5)ncnc4n(-c4nnc(C(F)(F)F)s4)c3c2)CC1` [Example 188, N-(1-Cyanocyclopropyl)-4-(4-(cyclopropanecarbonyl)piperazin-1-yl)-9-(5-(trifluoromethyl)-1,3,4-thiadiazol-2-yl)-9H-pyrimido[4,5-b]indole-7-sulfonamide], the half-inhibitory concentration (IC50) in assay [1] is 100 to 1000 nM; in assay [2], less than 100 nM.
On the same counts, the results for `CN(C)[C@@H]1CCN(C(=O)N2CCC(c3ncnc4c3c3ccc(S(=O)(=O)NC5(C#N)CC5)cc3n4-c3nnc(C(F)F)s3)CC2)C1` [Example 137, (R)-N-(1-Cyanocyclo-propyl)-9-(5-(difluoromethyl)-1,3,4-thiadiazol-2-yl)-4-(1-(3-(dimethylamino)pyrrolidine-1-carbonyl)piperidin-4-yl)-9H-pyrimido[4,5-b] indole-7-sulfonamide] are 100 to 1000 nM and less than 100 nM.
Taken in the same sequence, the figures for `CC(C)C(=O)N1CC=C(c2ncnc3c2c2cc(F)c(S(=O)(=O)NC4(C)CC4)cc2n3-c2nnc(C(F)F)s2)CC1` [Example 103, 9-(5-(Difluoromethyl)-1,3,4-thiadiazol-2-yl)-6-fluoro-4-(1-isobutyryl-1,2,3,6-tetrahydropyridin-4-yl)-N-(1-methylcyclopropyl)-9H-pyrimido[4,5-b]indole-7-sulfonamide] were less than 100 nM and less than 100 nM.
Taken in the same sequence, the figures for `N#CC1(NS(=O)(=O)c2ccc3c4c(N5CCN6CCOC[C@H]6C5)ncnc4n(-c4nnc(C(F)F)s4)c3c2)CC1` [Example 161, (R)-N-(1-cyanocyclopropyl)-9-(5-(difluoromethyl)-1,3,4-thiadiazol-2-yl)-4-(hexahydropyrazino[2,1-c][1,4]oxazin-8(1H)-yl)-9H-pyrimido[4,5-b]indole-7-sulfonamide] were less than 100 nM and less than 100 nM.
On to `CCCN1CCN(c2ncnc3c2c2ccc(S(=O)(=O)NC4(C#N)CC4)cc2n3-c2nnc(C(F)F)s2)C[C@@H]1C` [Example 157, (S)-N-(1-cyanocyclopropyl)-9-(5-(difluoromethyl)-1,3,4-thiadiazol-2-yl)-4-(3-methyl-4-propylpiperazin-1-yl)-9H-pyrimido[4,5-b]indole-7-sulfonamide], for which the IC50 in assay [1] and in assay [2] was less than 100 nM throughout.
As to `N#CC1(NS(=O)(=O)c2ccc3c4c(C5CCN(C(=O)[C@@H]6CCCN6)CC5)ncnc4n(-c4nnc(C(F)F)s4)c3c2)CC1` [Example 124, (S)—N-(1-Cyanocyclopropyl)-9-(5-(difluoromethyl)-1,3,4-thiadiazol-2-yl)-4-(1-prolylpiperidin-4-yl)-9H-pyrimido[4,5-b]indole-7-sulfonamide], the IC50 is 100 to 1000 nM in assay [1] and less than 100 nM in assay [2].
On the same counts, the results for `CN(C)C(=O)N1CC=C(c2ccnc3c2c2ccc(S(=O)(=O)NC4(C)CC4)cc2n3-c2nnc(C(F)F)s2)CC1` [Example 194, 4-(9-(5-(Difluoromethyl)-1,3,4-thiadiazol-2-yl)-7-(N-(1-methylcyclopropyl)sulfamoyl)-9H-pyrido[2,3-b]indol-4-yl)-N,N-dimethyl-3,6-dihydropyridine-1(2H)-carboxamide] are 100 to 1000 nM and 100 to 1000 nM.
Taken in the same sequence, the figures for `N#CC1(NS(=O)(=O)c2ccc3c4c(N5CCN(C(=O)C6CC6(F)F)CC5)ncnc4n(-c4nnc(C(F)F)s4)c3c2)CC1` (stereo not drawn) [Example 26, N-(1-Cyanocyclopropyl)-4-(4-(2,2-difluorocyclopropane-1-carbonyl)piperazin-1-yl)-9-(5-(difluoromethyl)-1,3,4-thiadiazol-2-yl)-9H-pyrimido[4,5-b]indole-7-sulfonamide] were less than 100 nM and less than 100 nM.
Taken in the same sequence, the figures for `CN1CC(C(=O)N2CCN(c3ncnc4c3c3ccc(S(=O)(=O)NC5(C#N)CC5)cc3n4-c3nnc(C(F)F)s3)CC2)C1` [Example 65, N-(1-Cyanocyclopropyl)-9-(5-(difluoromethyl)-1,3,4-thiadiazol-2-yl)-4-(4-(1-methylazetidine-3-carbonyl)piperazin-1-yl)-9H-pyrimido [4,5-b]indole-7-sulfonamide] were 100 to 1000 nM and less than 100 nM.
As to `CO[C@@H]1CCN(c2ncnc3c2c2ccc(S(=O)(=O)NC4(C#N)CC4)cc2n3-c2nnc(C(F)F)s2)C[C@@H]1F` [Example 171, N-(1-Cyanocyclopropyl)-9-(5-(difluoromethyl)-1,3,4-thiadiazol-2-yl)-4-((3S,4R)-3-fluoro-4-methoxypiperidin-1-yl)-9H-pyrimido[4,5-b]indole-7-sulfonamide], the IC50 in assay [1] and in assay [2] was less than 100 nM each time.
Take `CC1(NS(=O)(=O)c2ccc3c4c(C5CCN(C(=O)N6CC[C@@H](O)C6)CC5)ncnc4n(-c4nnc(C(F)F)s4)c3c2)CC1` [Example 132, (R)-9-(5-(Difluoromethyl)-1,3,4-thiadiazol-2-yl)-4-(1-(3-hydroxypyrrolidine-1-carbonyl)piperidin-4-yl)-N-(1-methylcyclopropyl)-9H-pyrimido[4,5-b]indole-7-sulfonamide]: the half-maximal inhibitory concentration (IC50) in assay [1] and in assay [2] was less than 100 nM each time.
As for `N#CC1(NS(=O)(=O)c2ccc3c4c(C5CCN(C(=O)C6(O)CC6)CC5)ncnc4n(-c4nnc(C(F)F)s4)c3c2)CC1` [Example 114, N-(1-cyanocyclopropyl)-9-(5-(difluoromethyl)-1,3,4-thiadiazol-2-yl)-4-(1-(1-hydroxycyclopropane-1-carbonyl)piperidin-4-yl)-9H-pyrimido[4,5-b]indole-7-sulfonamide], the IC50 in assay [1] is 100 to 1000 nM; in assay [2], less than 100 nM.
On the same counts, the results for `N#CC1(NS(=O)(=O)c2ccc3c4c(C5=CCOCC5)ncnc4n(-c4nnc(C(F)F)s4)c3c2)CC1` [Example 78, N-(1-Cyanocyclopropyl)-9-(5-(difluoromethyl)-1,3,4-thiadiazol-2-yl)-4-(3,6-dihydro-2H-pyran-4-yl)-9H-pyrimido[4,5-b]indole-7-sulfonamide] are 100 to 1000 nM and less than 100 nM.
Taken in the same sequence, the figures for `CC(O)CN(C)C(=O)N1CCC(c2ncnc3c2c2ccc(S(=O)(=O)NC4(C#N)CC4)cc2n3-c2nnc(C(F)F)s2)CC1` (stereo not drawn) [Example 142, 4-(7-(N-(1-cyanocyclo-propyl)sulfamoyl)-9-(5-(difluoromethyl)-1,3,4-thiadiazol-2-yl)-9H-pyrimido[4,5-b]indol-4-yl)-N-(2-hydroxypropyl)-N-methylpiperidine-1-carboxamide] were less than 100 nM and less than 100 nM.
For the compound `C[C@H]1CN(c2ncnc3c2c2cc(F)c(S(=O)(=O)NC4(C#N)CC4)cc2n3-c2nnc(C(F)F)s2)CCN1C(=O)N(C)C` [Example 46, (S)-4-(7-(N-(1-Cyanocyclopropyl)sulfamoyl)-9-(5-(difluoromethyl)-1,3,4-thiadiazol-2-yl)-6-fluoro-9H-pyrimido[4,5-b]indol-4-yl)-N,N,2-trimethylpiperazine-1-carboxamide], the IC50 in assay [1] and in assay [2] was less than 100 nM throughout.
For the compound `N#CC1(NS(=O)(=O)c2ccc3c4c(N5CC[C@@H](O)C5)ncnc4n(-c4nnc(C(F)F)s4)c3c2)CC1` [Example 54, (R)-N-(1-Cyanocyclopropyl)-9-(5-(difluoromethyl)-1,3,4-thiadiazol-2-yl)-4-(3-hydroxypyrrolidin-1-yl)-9H-pyrimido[4,5-b]indole-7-sulfonamide], the half-inhibitory concentration (IC50) in assay [1] and in assay [2] was 100 to 1000 nM in each case.
With `N#CC1(NS(=O)(=O)c2ccc3c4c(C5CCC(O)CC5)ncnc4n(-c4nnc(C(F)F)s4)c3c2)CC1` (stereo not drawn) [Example 85, N-(1-Cyanocyclopropyl)-9-(5-(difluoromethyl)-1,3,4-thiadiazol-2-yl)-4-(4-hydroxycyclohexyl)-9H-pyrimido[4,5-b]indole-7-sulfonamide], the IC50 in assay [1] and in assay [2] was less than 100 nM in each case.

For orientation: IC50 means the midpoint of a concentration-inhibition curve.

The values above are taken from patent US20250388589A1, “TRICYCLIC HETEROCYCLIC DERIVATIVES, COMPOSITIONS AND USES THEREOF” (Danatlas Pharmaceuticals Co., Ltd., priority 2022, published 2025).
